Results reported in patent US20050049278A1, “Benzo[1,3]dioxole compounds, pharmaceutical compositions thereof, and processes of making and using the same” (priority 2003, published 2005).

Tests used:
HEK293 cells [1] = assay: Cell cycle analysis by FACS of HEK293 cells; assay type: cell-based; conditions: HEK293, 50 μM, treated 16 to 24 hrs
Method: Fluorescence-activated cell sorting (FACS) analysis was used to examine the cell cycle state when the cells were incubated with compounds of formula (I) as well as several control compounds, including DMSO, noscapine (a known G2/M inhibitor), and colchicine (a known G2/M inhibitor).
In particular, HEK293 cells were cultured in DMEM media (Celigro) supplemented with 10% Fetal Bovine Serum (Tissue Culture Biologicals) and 1× Penicillin/Streptomycin/Glutamine (Gibco). The cells were grown at 37° C. with 5% CO2, plated in six-well plates at 2.5×10^6 cells/well, and treated for 16 to 24 hrs with the compounds at the concentrations shown in Table 1, below. The cells were then triturated off the bottom of the wells, washed 1× with PBS, then fixed with 70% ethanol, and stored at 4° C. before staining and FACS analysis.
The DNA content of cells was determined using a FacsVantage SE flow cytometry system (Becton Dickinson, San Jose, Calif.) and a Cellular DNA Flow Cytometric Analysis Kit (Roche Applied Science, Indianapolis, Ind.). Cell cycle analysis was performed using Cylchred 1.0.2 software.

HEK293 cells [2] = assay: HEK293 cell viability, CellTiter 96 Aqueous One Solution Cell Proliferation assay; assay type: cell-based; conditions: Homo sapiens, HEK293, 48 h, read-out: EC50
Method: The effect of various doses of compounds 5a, 5a,b, and 9a on the viability of HEK293 cells was examined using the CellTiter 96 Aqueous One Solution Cell Proliferation assay (Promega). The HEK293 cells were cultured in DMEM media (Cellgro) or phenol red-free DMEM (Gibco) supplemented with 10% Fetal Bovine Serum (Tissue Culture Biologicals) and 1× Penicillin/Streptomycin/Glutamine (Gibco). The cells were grown at 37° C. with 5% CO2. HEK293 cells were seeded into each well of a 96-well plate (5000 cells/well) and incubated overnight to allow the cells to attach. The culture media was removed and replaced with 100 μl of phenol red-free media containing the compounds 5a, 5a,b, and 9a at various concentrations. The cells were allowed to grow in the presence of the compounds for 48 hrs. At the end of the treatment, 20 μl of CellTiter 96 Aqueous One Solution reagent was added directly into each well, and the cells were incubated at 37° C. for 2 hrs. This reagent converts to a form that absorbs light at 490 nm by living cells. Thus, absorbance at 490 nm is proportional to the number of viable cells. The 490 nm absorbance was measured on a BioRad plate reader. Control wells containing no cells were included in this assay to correct for background absorbance.

topoisomerase I = molecular target: T1, topoisomerase I (Homo sapiens, UniProt P11387); assay: Topoisomerase I assay (supercoiled pBluescript DNA, agarose gel); assay type: biochemical; conditions: in vitro, FIG. 2
T1 construct: purchased Sigma-Aldrich
T1 sequence (P11387 1-765): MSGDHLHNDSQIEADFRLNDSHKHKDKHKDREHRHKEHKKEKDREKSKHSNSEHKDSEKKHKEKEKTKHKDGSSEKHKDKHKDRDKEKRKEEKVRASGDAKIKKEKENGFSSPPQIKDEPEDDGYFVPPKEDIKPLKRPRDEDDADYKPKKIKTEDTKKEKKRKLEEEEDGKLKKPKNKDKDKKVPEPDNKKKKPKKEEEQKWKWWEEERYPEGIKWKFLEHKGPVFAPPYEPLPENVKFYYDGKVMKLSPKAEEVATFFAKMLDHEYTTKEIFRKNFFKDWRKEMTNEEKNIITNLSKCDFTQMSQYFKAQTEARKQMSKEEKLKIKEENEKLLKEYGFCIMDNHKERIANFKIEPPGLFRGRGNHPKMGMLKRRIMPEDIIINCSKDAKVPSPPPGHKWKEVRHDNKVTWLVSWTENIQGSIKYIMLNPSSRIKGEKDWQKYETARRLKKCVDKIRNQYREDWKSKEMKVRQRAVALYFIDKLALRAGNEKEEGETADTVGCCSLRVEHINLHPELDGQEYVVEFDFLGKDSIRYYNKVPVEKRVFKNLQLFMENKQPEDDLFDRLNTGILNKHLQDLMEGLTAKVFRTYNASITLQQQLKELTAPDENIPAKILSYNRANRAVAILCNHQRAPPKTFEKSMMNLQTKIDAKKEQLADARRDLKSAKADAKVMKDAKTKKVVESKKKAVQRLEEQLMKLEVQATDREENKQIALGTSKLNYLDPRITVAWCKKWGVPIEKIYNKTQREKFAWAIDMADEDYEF
Method: (§1) The ability of compounds that cause S-phase cell cycle arrest to inhibit topoisomerase I and topoisomerase II was examined. Analysis of topoisomerase activity was performed in 20 μl reactions with either topoisomerase I reaction buffer (10 mM TRIS-HCl, pH 7.5; 100 mM NaCl; 1 mM 2-mercaptoethanol) or topoisomerase II reaction buffer (50 mM Tris-HCl, pH 8; 120 mM KCl; 10 mM MgCl2; 0.5 mM dithiothreitol; 0.5 mM ATP; 30 μg BSA/ml) containing 125 ng supercoiled pBluescript DNA and either 2 U topoisomerase I (Sigma-Aldrich) or topoisomerase II (Topogen Inc.). After reaction at 37° C. for 20 minutes, the reactions were terminated through the addition of sodium dodecyl sulfate to 1% w/v and heating to 65° C. for 10 minutes. Proteinase K was then added to 10 μg/ml and digestion was allowed to proceed at 37° C. for 20 minutes before electrophoresis of the DNA in 0.8% agarose gels containing 0.5 μg/ml ethidium bromide for 18 hours at 75V in 0.5×TBE buffer. DNA was then visualized using a UV-transilluminator and the image was captured using a BioRad CCD camera and gel documentation system.

topoisomerase II = molecular target: T2, topoisomerase II (Homo sapiens, UniProt P11388); assay: Topoisomerase II assay (supercoiled pBluescript DNA, agarose gel); assay type: biochemical; conditions: in vitro, FIG. 2
T2 construct: purchased Topogen Inc
T2 sequence (P11388 whole entry): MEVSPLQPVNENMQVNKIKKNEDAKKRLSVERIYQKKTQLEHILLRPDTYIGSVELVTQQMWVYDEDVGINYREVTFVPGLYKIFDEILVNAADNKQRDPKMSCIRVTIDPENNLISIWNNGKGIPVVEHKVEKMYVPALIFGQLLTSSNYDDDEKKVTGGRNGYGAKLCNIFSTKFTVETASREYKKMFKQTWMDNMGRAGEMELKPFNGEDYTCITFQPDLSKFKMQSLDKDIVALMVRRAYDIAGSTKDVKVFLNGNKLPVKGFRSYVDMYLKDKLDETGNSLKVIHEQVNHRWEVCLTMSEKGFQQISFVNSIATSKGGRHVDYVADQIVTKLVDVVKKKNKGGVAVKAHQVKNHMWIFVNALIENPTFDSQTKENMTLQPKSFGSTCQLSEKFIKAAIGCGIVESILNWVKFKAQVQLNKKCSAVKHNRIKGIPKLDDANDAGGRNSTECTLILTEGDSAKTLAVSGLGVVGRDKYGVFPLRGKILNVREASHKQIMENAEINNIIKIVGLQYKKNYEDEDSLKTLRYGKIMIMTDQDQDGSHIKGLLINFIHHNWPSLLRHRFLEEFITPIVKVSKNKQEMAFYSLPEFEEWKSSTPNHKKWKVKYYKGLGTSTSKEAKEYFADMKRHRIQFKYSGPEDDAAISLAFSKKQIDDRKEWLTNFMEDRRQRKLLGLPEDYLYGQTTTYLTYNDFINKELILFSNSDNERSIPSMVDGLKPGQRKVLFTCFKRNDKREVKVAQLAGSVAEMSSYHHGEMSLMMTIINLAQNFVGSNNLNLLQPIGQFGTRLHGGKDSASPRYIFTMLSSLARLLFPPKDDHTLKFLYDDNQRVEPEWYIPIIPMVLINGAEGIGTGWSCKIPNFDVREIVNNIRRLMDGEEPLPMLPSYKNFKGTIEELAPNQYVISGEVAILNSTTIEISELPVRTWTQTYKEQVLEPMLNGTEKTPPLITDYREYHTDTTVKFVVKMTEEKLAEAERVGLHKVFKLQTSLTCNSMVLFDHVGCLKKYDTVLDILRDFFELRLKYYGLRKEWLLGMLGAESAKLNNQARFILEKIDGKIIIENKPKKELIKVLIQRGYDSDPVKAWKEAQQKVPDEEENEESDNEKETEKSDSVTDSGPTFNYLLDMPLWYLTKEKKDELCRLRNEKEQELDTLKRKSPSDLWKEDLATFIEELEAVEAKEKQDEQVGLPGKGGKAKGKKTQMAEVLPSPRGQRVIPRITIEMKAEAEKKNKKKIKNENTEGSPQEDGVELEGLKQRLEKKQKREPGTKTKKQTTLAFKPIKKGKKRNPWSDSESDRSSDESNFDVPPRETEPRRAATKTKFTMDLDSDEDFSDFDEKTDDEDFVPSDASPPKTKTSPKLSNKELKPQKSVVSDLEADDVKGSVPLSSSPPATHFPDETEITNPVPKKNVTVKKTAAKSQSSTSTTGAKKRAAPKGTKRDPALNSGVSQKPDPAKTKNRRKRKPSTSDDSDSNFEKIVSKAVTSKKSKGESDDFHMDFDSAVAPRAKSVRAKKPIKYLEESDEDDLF
Method: as §1, with “Analysis” for “The ability of compounds that cause S-phase cell cycle arrest to inhibit topoisomerase I and topoisomerase II was examined. Analysis”

COc1ccc2c(c1OC)C(=O)O[C@@H]2[C@H]1c2c(cc3c(c2OC)OCO3)CCN1C [Noscapine, noscapine, reference compound]
Percent of Cells in G1 (HEK293 cells [1]): 19.2% | Percent of Cells in G2/M (HEK293 cells [1]): 49.6% | Percent of Cells in S (HEK293 cells [1]): 31.1% | EC50 (HEK293 cells [2]): ~10 µM | inhibition of topoisomerase I activity (topoisomerase I): neither etoposide nor noscapine inhibited | inhibition of topoisomerase II activity (topoisomerase II): neither topotecan nor noscapine acts as inhibitors
